Assay results reported in patent US10159635B2, “Cosmetic and pharmaceutical uses of saccharides” (CURAPEL (SCOTLAND) LIMITED, priority 2012, dated 2018).

Experiments:
[1] = test system: melanin in ex-vivo human skin; experiment: Masson Fontana melanin staining of ex-vivo human skin in organ culture; assay type: cell-based
Description: Samples of full thickness ex-vivo human skin were obtained from elective plastic surgery procedures. […] Two concentrations of the NDO melibiose, 1.5 and 3.0% (w/v) were tested for their ability to reduce skin pigmentation by addition to the medium surrounding the cultured skin samples at day 1 and every time the medium was changed thereafter. As a control some skin samples were cultured under identical conditions apart from the […] of melibiose.
At day 6, the skin samples were immersed in cryo-embedding medium and 5 μm sections cut and stained using the Masson Fontana assay. The principle of the Masson Fontana assay is that melanin granules reduce silver from ammoniacal silver nitrate solution to a visible metallic state. Information on the protocol for the Masson-Fontana Assay may be found in relevant laboratory handbooks, for example Lille RD, 1965, Histopathologic Technique and Practical Histochemistry, 3rd Ed 1965, the Blakiston Division, McGraw Hill Book Company, p 240, which is incorporated herein by reference.
Following the fixation of cryosections of skin with ethanol/acetic acid, slides were heated in 0.5% ammoniacal silver nitrate solution using a microwave. Sections were then toned in 1% gold chloride, fixed in 5% sodium thiosulphate and counterstained with haematoxylin before mounting using DPEX. Melanin stain can then be visualised using light microscopy.
Samples of full thickness ex-vivo human skin were obtained as described in Example 1 and were maintained in organ culture for 6 days. Two concentrations of the NDO melibiose, 25 mM and 50 mM, and two concentration of the NDO P95 (a 95% mixture of oligofructose, also known as fructooligosaccharides (FOS)), 25 mM and 50 mM, were tested for their ability to reduce skin pigmentation by addition to the medium surrounding the cultured skin samples at day 1 and every time the medium was changed thereafter. As a control some skin samples were cultured under identical conditions apart from the absence of NDO. […]

[2] = test system: interleukin-8 (IL-8) production by HaCaT keratinocytes; experiment: IL-8 ELISA on culture supernatant of keratinocytes; assay type: cell-based
Description: Following an overnight coating of a flat-bottomed 96 well plate with an anti-IL-8 antibody, a 9-point IL-8 standard curve was generated using serial dilutions from a 2000 pg/ml IL-8 stock solution. These were cultured on the 96 well plate for 2 h along side culture supernatants derived from keratinocytes exposed to sugars. The plate was then washed and incubated for 2 h with an anti-IL-8 biotin-antibody before the plate was again washed and left for 20 min with a solution of streptavidin-HRP. After a final wash the plate was coated with a solution of tetramethyl benzidine forming a blue reaction product, the intensity of which relates to amount of IL-8 present in the original culture supernatant. This reaction was stopped using sulphuric acid turning the solution yellow which was then read on a microplate reader at […]. Unknown sample concentrations of IL-8 were determined using the standard curve.

Compound: OC[C@H]1O[C@H](OCC2O[C@@H](O)[C@H](O)[C@@H](O)[C@@H]2O)[C@H](O)[C@@H](O)[C@H]1O (some centres unmarked) [melibiose]
- reduction in melanin staining (mean density, image analysis) in treated skin vs control ([1]; Example 1, ex-vivo human skin, 6 days culture, 25 mM or 50 mM melibiose, FIG. 2b): approximately 10%
- melanin in stained skin sections, treated vs untreated control ([1]; Example 1, full thickness ex-vivo human skin, 6 days organ culture, melibiose 1.5 and 3.0% (w/v) in medium, FIG. 2a): significant reduction in melanin
- mean density of melanin staining, treated skin vs control ([1]; Example 2, ex-vivo human skin, 6 days organ culture, 25 mM or 50 mM NDO in medium, FIG. 3): reduction in melanin staining
- constitutive (baseline) IL-8 secretion ([2]; HaCaT keratinocytes, unstimulated, FIG. 4a): mildly dose-responsive suppression
- IL-8 secretion in response to IL-1β stimulation ([2]; keratinocytes stimulated with IL-1β, 5% melibiose, FIG. 4b): reduced to nearly control levels
